Data published in patent US20210017295A1, “BISPECIFIC BINDING AGENTS AND USES THEREOF” (MEMORIAL SLOAN KETTERING CANCER CENTER, priority 2018, published 2021).
Like-named read-outs stand apart in the source and are kept apart here.

System: s.c. HER2(+) BT-474 tumors
Format: in vivo, mouse
[1] = PRIT, CA 28% w/w 70 μg, 24 h p.i., mean ± SD
[2] = no PRIT, only ~16.8 MBq (90 pmol), 24 h p.i., mean ± SEM
[3] = optimized PRIT, 1.0 h p.i., mean ± SEM
[4] = optimized PRIT, 24 h p.i., mean ± SEM
[5] = optimized PRIT, 96 h p.i., mean ± SEM
[6] = optimized PRIT, 336 h p.i., mean ± SEM
[7] = optimized PRIT, […] p.i., mean ± SEM

Nc1ccc(CC2CN(CC(=O)[O-])CCN(CC(=O)[O-])CCN(CC(=O)[O-])CCN2CC(=O)[O-])cc1.[177Lu+3] (centres unmarked) [^177Lu-DOTA-Bn]
^177Lu activity in Kidneys [1]: 0.75 ± 0.08 % IA/g
^177Lu activity in Large Int. [1]: 0.19 ± 0.04 % IA/g
^177Lu activity in Liver [1]: 0.33 ± 0.02 % IA/g
^177Lu activity in Lungs [1]: 0.25 ± 0.05 % IA/g
^177Lu activity in Muscle [1]: 0.08 ± 0.02 % IA/g
^177Lu activity in Small Int. [1]: 0.07 ± 0.01 % IA/g
^177Lu activity in Spleen [1]: 0.73 ± 0.18 % IA/g
^177Lu activity in Stomach [1]: 0.05 ± 0.02 % IA/g
^177Lu activity in Tumor [1]: 6.98 ± 3.15 % IA/g
^177Lu activity in Blood [2]: 0.002±0.00 % IA/g
^177Lu activity in Kidneys [2]: 0.38±0.01 % IA/g
^177Lu activity in Liver [2]: 0.04 ± 0.01 % IA/g
^177Lu activity in Spleen [2]: 0.02 ± 0.00 % IA/g
^177Lu activity in Tumor [2]: 0.07±0.01 % IA/g
^177Lu activity in tumor, range (optimized PRIT, 1-24 h p.i.): 5-8 % IA/g
Tumor-to-tissue ratio, Blood [3]: 10.7 ± 1.3
Tumor-to-tissue ratio, Bone [3]: 37.3 ± 6.0
Tumor-to-tissue ratio, Heart [3]: 38.7 ± 6.7
Tumor-to-tissue ratio, Kidneys [3]: 5.7 ± 0.5
Tumor-to-tissue ratio, Large Int. [3]: 3.0 ± 0.5
Tumor-to-tissue ratio, Liver [3]: 8.7 ± 0.9
Tumor-to-tissue ratio, Lungs [3]: 16.6 ± 2.3
Tumor-to-tissue ratio, Muscle [3]: 35.7 ± 3.6
Tumor-to-tissue ratio, Small Int. [3]: 6.0 ± 1.5
Tumor-to-tissue ratio, Spleen [3]: 44.9 ± 6.3
Tumor-to-tissue ratio, Stomach [3]: 17.8 ± 4.6
^177Lu activity in Blood [3]: 0.62 ± 0.06 % IA/g
^177Lu activity in Bone [3]: 0.18 ± 0.03 % IA/g
^177Lu activity in Heart [3]: 0.17 ± 0.03 % IA/g
^177Lu activity in Kidneys [3]: 1.17 ± 0.02 % IA/g
^177Lu activity in Large Int. [3]: 2.22 ± 0.37 % IA/g
^177Lu activity in Liver [3]: 0.76 ± 0.06 % IA/g
^177Lu activity in Lungs [3]: 0.40 ± 0.05 % IA/g
^177Lu activity in Muscle [3]: 0.19 ± 0.01 % IA/g
^177Lu activity in Small Int. [3]: 1.11 ± 0.27 % IA/g
^177Lu activity in Spleen [3]: 0.15 ± 0.02 % IA/g
^177Lu activity in Stomach [3]: 0.37 ± 0.09 % IA/g
^177Lu activity in Tumor [3]: 6.65 ± 0.46 % IA/g
Tumor-to-tissue ratio, Blood [4]: 26.7±9.0
Tumor-to-tissue ratio, Bone [4]: 189.6 ± 46.7
Tumor-to-tissue ratio, Heart [4]: 105.3 ± 27.7
Tumor-to-tissue ratio, Kidneys [4]: 10.4±1.3
Tumor-to-tissue ratio, Large Int. [4]: 41.7 ± 5.4
Tumor-to-tissue ratio, Liver [4]: 28.3 ± 8.3
Tumor-to-tissue ratio, Lungs [4]: 38.7 ± 10.0
Tumor-to-tissue ratio, Muscle [4]: 118.5 ± 26.8
Tumor-to-tissue ratio, Small Int. [4]: 140.4 ± 22.8
Tumor-to-tissue ratio, Spleen [4]: 12.6 ± 4.5
Tumor-to-tissue ratio, Stomach [4]: 122.3 ± 17.1
Tumor-to-tissue ratio, Blood [5]: 63.6 ± 12.2
Tumor-to-tissue ratio, Bone [5]: 6.0 ± 1.7
Tumor-to-tissue ratio, Heart [5]: 42.4 ± 10.3
Tumor-to-tissue ratio, Kidneys [5]: 8.4 ± 1.7
Tumor-to-tissue ratio, Large Int. [5]: 31.8 ± 8.6
Tumor-to-tissue ratio, Liver [5]: 10.1 ± 2.6
Tumor-to-tissue ratio, Lungs [5]: 34.7 ± 8.8
Tumor-to-tissue ratio, Muscle [5]: 22.5 ± 8.7
Tumor-to-tissue ratio, Small Int. [5]: 44.0 ± 12.6
Tumor-to-tissue ratio, Spleen [5]: 12.9 ± 2.9
Tumor-to-tissue ratio, Stomach [5]: 57.3 ± 13.7
^177Lu activity in Blood [5]: 0.04 ± 0.00 % IA/g
^177Lu activity in Bone [5]: 0.38 ± 0.09 % IA/g
^177Lu activity in Heart [5]: 0.05 ± 0.01 % IA/g
^177Lu activity in Kidneys [5]: 0.27 ± 0.03 % IA/g
^177Lu activity in Large Int. [5]: 0.07 ± 0.01 % IA/g
^177Lu activity in Liver [5]: 0.23 ± 0.04 % IA/g
^177Lu activity in Lungs [5]: 0.07 ± 0.01 % IA/g
^177Lu activity in Muscle [5]: 0.10 ± 0.03 % IA/g
^177Lu activity in Small Int. [5]: 0.05 ± 0.01 % IA/g
^177Lu activity in Spleen [5]: 0.18 ± 0.02 % IA/g
^177Lu activity in Stomach [5]: 0.04 ± 0.01 % IA/g
^177Lu activity in Tumor [5]: 2.29±0.41 % IA/g
Tumor-to-tissue ratio, Blood [6]: 160.8 ± 30.3
Tumor-to-tissue ratio, Bone [6]: 10.0 ± 3.6
Tumor-to-tissue ratio, Heart [6]: 37.8 ± 7.7
Tumor-to-tissue ratio, Kidneys [6]: 3.8 ± 0.9
Tumor-to-tissue ratio, Large Int. [6]: 75.6 ± 26.4
Tumor-to-tissue ratio, Liver [6]: 3.7 ± 1.0
Tumor-to-tissue ratio, Lungs [6]: 29.2 ± 8.2
Tumor-to-tissue ratio, Muscle [6]: 64.3 ± 18.4
Tumor-to-tissue ratio, Small Int. [6]: 116.9 ± 30.0
Tumor-to-tissue ratio, Spleen [6]: 3.5 ± 0.9
Tumor-to-tissue ratio, Stomach [6]: 51.4 ± 12.4
^177Lu activity in Blood [6]: 0.002 ± 0.00 % IA/g
^177Lu activity in Bone [6]: 0.03 ± 0.01 % IA/g
^177Lu activity in Heart [6]: 0.01 ± 0.00 % IA/g
^177Lu activity in Kidneys [6]: 0.08 ± 0.01 % IA/g
^177Lu activity in Large Int. [6]: 0.004 ± 0.00 % IA/g
^177Lu activity in Liver [6]: 0.09 ± 0.02 % IA/g
^177Lu activity in Lungs [6]: 0.01 ± 0.00 % IA/g
^177Lu activity in Muscle [6]: 0.01 ± 0.00 % IA/g
^177Lu activity in Small Int. [6]: 0.003 ± 0.00 % IA/g
^177Lu activity in Spleen [6]: 0.09 ± 0.02 % IA/g
^177Lu activity in Stomach [6]: 0.01 ± 0.00 % IA/g
^177Lu activity in Tumor [6]: 0.32±0.06 % IA/g
approximate tumor clearance half-life (optimized PRIT, R^2=0.894): ~38.6 h
Tumor-to-tissue ratio, Blood [7]: 12.1 ± 1.5
Tumor-to-tissue ratio, Bone [7]: 37.5 ± 4.3
Tumor-to-tissue ratio, Heart [7]: 37.5 ± 5.2
Tumor-to-tissue ratio, Kidneys [7]: 5.2 ± 0.5
Tumor-to-tissue ratio, Large Int. [7]: 1.6 ± 0.3
Tumor-to-tissue ratio, Liver [7]: 12.6 ± 1.6
Tumor-to-tissue ratio, Lungs [7]: 13.5 ± 1.6
Tumor-to-tissue ratio, Muscle [7]: 25.8 ± 5.1
Tumor-to-tissue ratio, Small Int. [7]: 10.6 ± 3.7
Tumor-to-tissue ratio, Spleen [7]: 14.9 ± 1.8
Tumor-to-tissue ratio, Stomach [7]: 23.6 ± 7.7
^177Lu activity in Blood [7]: 0.41 ± 0.04 % IA/g
^177Lu activity in Bone [7]: 0.13 ± 0.01 % IA/g
^177Lu activity in Heart [7]: 0.13 ± 0.02 % IA/g
^177Lu activity in Kidneys [7]: 0.95 ± 0.05 % IA/g
^177Lu activity in Large Int. [7]: 3.18 ± 0.52 % IA/g
^177Lu activity in Liver [7]: 0.39 ± 0.04 % IA/g
^177Lu activity in Lungs [7]: 0.37 ± 0.03 % IA/g
^177Lu activity in Muscle [7]: 0.19 ± 0.04 % IA/g
^177Lu activity in Small Int. [7]: 0.47 ± 0.16 % IA/g
^177Lu activity in Spleen [7]: 0.33 ± 0.03 % IA/g
^177Lu activity in Stomach [7]: 0.21 ± 0.07 % IA/g
^177Lu activity in Tumor [7]: 4.95 ± 0.34 % IA/g
